Laboratory results as given in ChEMBL document CHEMBL4610071, “Ancistrosecolines A-F, Unprecedented seco-Naphthylisoquinoline Alkaloids from the Roots of Ancistrocladus abbreviatus, with Apoptosis-Inducing Potential against HeLa Cancer Cells” (J Nat Prod, 2020).
Activity calls are given as the source filed them. The rule behind the calls is not given here.

Columns and labels:
Format in all cases: functional, cell-based
HeLa [1] = test: Cytotoxicity against human HeLa cells incubated for 72 hrs by WST-8 assay
HeLa [2] = test: Inhibition of cell division in human HeLa cells at 50 uM measured within 3 hrs by real-time digital microscopy
HeLa [3] = test: Induction of apoptosis in human HeLa cells at 50 uM assessed as appearance of elongated cellular morphology incubated for 72 hrs by Hoechst 33342 staining based microscopic method
HeLa [4] = test: Induction of apoptosis in human HeLa cells at 50 uM assessed as nuclear fragmentation incubated for 72 hrs by Hoechst 33342 staining based microscopic method
HeLa [5] = test: Induction of apoptosis in human HeLa cells at 50 uM measured within 24 hrs by real-time digital microscopy
HeLa [6] = test: Induction of morphological alteration in human HeLa cells at 50 uM measured within 3 hrs by real-time digital microscopy

Compound	IC50 (HeLa [1]) [µM]	Activity (HeLa [1])	inhibition (HeLa [2])	Activity (HeLa [3])	Activity (HeLa [4])	Activity (HeLa [5])	Activity (HeLa [6])
COc1cc(C[C@H](C)N)cc(O)c1-c1c(C)cc(OC)c2c(OC)cccc12 (atropisomer P)	72.4						
CN[C@@H](C)Cc1cc(O)c(-c2c(C)cc(OC)c3c(OC)cccc23)c(OC)c1 (atropisomer P)	52.6						
COc1cc(C[C@H](C)N)cc(O)c1-c1ccc(OC)c2c(OC)cc(C)cc12 (atropisomer P)	11.2	Dose-dependent effect	Active	Active	Active	Active	Active
